Article PMC3197600 (PLoS Pathogens, 2011)

Experiments:
Experiment in all cases: biochemical
[1] = target: p57N2 (pandemic A/RI/5+/1957 H2N2 N2 neuraminidase) (Influenza A virus, UniProt Q194T1); parameters: species or system influenza A virus A/RI/5+/1957 H2N2
[2] = target: p09N1 (pH1N1 N1 neuraminidase) (Influenza A virus (A/California/04/2009(H1N1)), UniProt C3W5S3); parameters: species or system 2009 pandemic influenza A H1N1 virus
[3] = target: N5 (avian H12N5 neuraminidase) (Influenza A virus (A/duck/Alberta/60/1976(H12N5)), UniProt A1ILL9)

Work on `[H]/N=C(\N)N[C@H]1C=C(C(=O)O)O[C@@H]([C@H](OC)[C@H](O)COC(=O)CCCCCCC)[C@@H]1NC(C)=O` [CS-8958, laninamivir octanoate] yielded an IC50 [1] of 129 nM, an IC50 [2] of 947 nM and an IC50 [3] of 389 nM.
Work on `CO[C@@H]([C@@H]1OC(C(=O)O)=C[C@H](NC(=N)N)[C@H]1NC(C)=O)[C@H](O)CO` [laninamivir] yielded an IC50 [1] of 3.12 nM and an IC50 [3] of 0.9 nM.
For `CCOC(=O)C1=C[C@@H](OC(CC)CC)[C@H](NC(C)=O)[C@@H](N)C1` [oseltamivir], the IC50 [1] was 0.79 nM and the IC50 [3] was 0.83 nM.
